Assay results taken from the NIST ThermoML archive (doi:10.1021/je049685z).

Experiment: xn = mol fraction of the nth substance listed
Settings: Liquid

Cc1ccccc1 [toluene] + CCCO
mass density [kg/m3]
Settings	100 kPa	5000 kPa	10000 kPa	15000 kPa	20000 kPa	25000 kPa	30000 kPa
303.15 K, x2 = 0	857.4	861.3	865.1	868.7	872.3	875.6	878.9
303.15 K, x2 = 0.2	847.5	851.5	855.3	859	862.5	865.9	869.2
303.15 K, x2 = 0.4	837.2	841.2	845	848.7	852.2	855.7	858.9
303.15 K, x2 = 0.6	825.9	829.9	833.7	837.4	840.9	844.3	847.5
303.15 K, x2 = 0.8	812.4	816.4	820.2	823.8	827.3	830.7	834
313.15 K, x2 = 0	848.1	852.1	856.2	860	863.7	867.2	870.7
313.15 K, x2 = 0.2	838.1	842.2	846.3	850.2	853.9	857.5	860.9
313.15 K, x2 = 0.4	828	832	836.1	840	843.7	847.3	850.7
313.15 K, x2 = 0.6	816.9	821	825	828.9	832.6	836.1	839.5
313.15 K, x2 = 0.8	803.8	807.8	811.9	815.8	819.4	823	826.3
323.15 K, x2 = 0	838.6	842.9	847.2	851.2	855.1	858.9	862.5
323.15 K, x2 = 0.2	828.5	832.9	837.2	841.3	845.2	849	852.6
323.15 K, x2 = 0.4	818.3	822.7	827	831.1	835	838.8	842.4
323.15 K, x2 = 0.6	807.4	811.8	816.1	820.2	824.1	827.9	831.5
323.15 K, x2 = 0.8	794.7	799.1	803.4	807.4	811.3	815	818.6
333.15 K, x2 = 0	829.2	833.7	838.2	842.5	846.6	850.5	854.3
333.15 K, x2 = 0.2	818.7	823.3	827.9	832.3	836.4	840.4	844.2
333.15 K, x2 = 0.4	808.5	813.1	817.8	822.1	826.3	830.3	834.1
333.15 K, x2 = 0.6	797.9	802.5	807.1	811.4	815.6	819.5	823.3
333.15 K, x2 = 0.8	785.6	790.2	794.7	799	803.1	807	810.8
